From patent publication US8129417B2, “Substituted octahydrocyclopenta[C]pyrrol-4-amines as calcium channel blockers” (Abbott Laboratories, priority 2008, dated 2012) come the findings set out here.

Sequence of human Cav2.2 (Q00975 whole entry): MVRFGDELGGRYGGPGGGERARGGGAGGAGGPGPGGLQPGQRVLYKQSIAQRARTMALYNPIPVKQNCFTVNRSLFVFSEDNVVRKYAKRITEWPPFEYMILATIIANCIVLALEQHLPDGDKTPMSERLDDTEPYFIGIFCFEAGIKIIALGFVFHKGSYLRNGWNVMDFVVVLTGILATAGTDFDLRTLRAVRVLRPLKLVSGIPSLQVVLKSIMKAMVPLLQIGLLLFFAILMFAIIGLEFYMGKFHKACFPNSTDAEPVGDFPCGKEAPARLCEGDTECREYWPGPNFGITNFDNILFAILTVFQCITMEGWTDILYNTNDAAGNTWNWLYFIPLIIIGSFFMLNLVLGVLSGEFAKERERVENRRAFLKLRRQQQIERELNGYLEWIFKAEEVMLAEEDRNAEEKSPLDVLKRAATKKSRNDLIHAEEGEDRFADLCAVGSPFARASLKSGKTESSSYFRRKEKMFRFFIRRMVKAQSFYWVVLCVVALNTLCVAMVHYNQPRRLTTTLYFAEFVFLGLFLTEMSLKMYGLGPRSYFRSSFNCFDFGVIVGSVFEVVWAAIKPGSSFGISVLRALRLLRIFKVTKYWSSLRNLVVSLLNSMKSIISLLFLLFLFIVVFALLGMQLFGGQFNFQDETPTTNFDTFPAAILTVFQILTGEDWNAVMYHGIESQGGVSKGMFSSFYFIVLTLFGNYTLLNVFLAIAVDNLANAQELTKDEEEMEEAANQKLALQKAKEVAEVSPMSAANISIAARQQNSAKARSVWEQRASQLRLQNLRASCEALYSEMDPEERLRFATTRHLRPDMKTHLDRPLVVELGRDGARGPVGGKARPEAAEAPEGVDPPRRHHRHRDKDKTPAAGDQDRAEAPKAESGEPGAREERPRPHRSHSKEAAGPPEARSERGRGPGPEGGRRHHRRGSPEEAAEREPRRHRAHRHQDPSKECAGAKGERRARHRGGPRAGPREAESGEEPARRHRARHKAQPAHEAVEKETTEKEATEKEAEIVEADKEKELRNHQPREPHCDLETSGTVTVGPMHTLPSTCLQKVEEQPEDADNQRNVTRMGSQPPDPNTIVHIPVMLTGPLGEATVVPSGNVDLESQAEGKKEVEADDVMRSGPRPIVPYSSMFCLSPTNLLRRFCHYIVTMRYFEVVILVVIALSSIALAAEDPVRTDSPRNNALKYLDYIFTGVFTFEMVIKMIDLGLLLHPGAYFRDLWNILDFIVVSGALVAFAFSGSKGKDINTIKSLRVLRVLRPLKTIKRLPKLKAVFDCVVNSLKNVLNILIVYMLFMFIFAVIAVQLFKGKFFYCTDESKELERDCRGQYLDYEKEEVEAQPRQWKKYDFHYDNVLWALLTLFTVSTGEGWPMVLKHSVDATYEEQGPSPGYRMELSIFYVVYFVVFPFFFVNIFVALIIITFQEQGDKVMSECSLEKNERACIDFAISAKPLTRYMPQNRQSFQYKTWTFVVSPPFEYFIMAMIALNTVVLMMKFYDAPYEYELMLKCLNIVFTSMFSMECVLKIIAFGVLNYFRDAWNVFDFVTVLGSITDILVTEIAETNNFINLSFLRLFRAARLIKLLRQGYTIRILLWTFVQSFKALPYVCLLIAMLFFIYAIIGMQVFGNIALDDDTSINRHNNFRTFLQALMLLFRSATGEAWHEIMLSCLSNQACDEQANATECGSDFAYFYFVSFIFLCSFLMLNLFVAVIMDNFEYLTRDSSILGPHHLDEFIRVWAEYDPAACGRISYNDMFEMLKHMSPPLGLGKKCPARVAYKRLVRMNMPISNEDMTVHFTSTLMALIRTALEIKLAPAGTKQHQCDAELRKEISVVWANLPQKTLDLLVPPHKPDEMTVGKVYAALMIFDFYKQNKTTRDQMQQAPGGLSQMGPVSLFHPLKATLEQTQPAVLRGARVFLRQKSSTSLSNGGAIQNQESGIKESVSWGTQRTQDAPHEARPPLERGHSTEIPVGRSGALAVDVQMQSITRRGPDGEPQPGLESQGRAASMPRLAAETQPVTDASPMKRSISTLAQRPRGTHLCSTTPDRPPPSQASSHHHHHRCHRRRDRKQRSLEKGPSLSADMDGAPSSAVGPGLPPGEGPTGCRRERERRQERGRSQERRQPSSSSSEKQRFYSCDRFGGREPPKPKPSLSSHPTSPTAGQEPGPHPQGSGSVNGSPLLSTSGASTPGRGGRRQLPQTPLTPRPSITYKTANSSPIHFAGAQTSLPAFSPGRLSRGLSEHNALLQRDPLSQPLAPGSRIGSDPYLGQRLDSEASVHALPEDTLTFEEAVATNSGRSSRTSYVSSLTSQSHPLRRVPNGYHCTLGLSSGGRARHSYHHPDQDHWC
Sequence of human Cav2.2 (P54289 25-946 partner limits assumed): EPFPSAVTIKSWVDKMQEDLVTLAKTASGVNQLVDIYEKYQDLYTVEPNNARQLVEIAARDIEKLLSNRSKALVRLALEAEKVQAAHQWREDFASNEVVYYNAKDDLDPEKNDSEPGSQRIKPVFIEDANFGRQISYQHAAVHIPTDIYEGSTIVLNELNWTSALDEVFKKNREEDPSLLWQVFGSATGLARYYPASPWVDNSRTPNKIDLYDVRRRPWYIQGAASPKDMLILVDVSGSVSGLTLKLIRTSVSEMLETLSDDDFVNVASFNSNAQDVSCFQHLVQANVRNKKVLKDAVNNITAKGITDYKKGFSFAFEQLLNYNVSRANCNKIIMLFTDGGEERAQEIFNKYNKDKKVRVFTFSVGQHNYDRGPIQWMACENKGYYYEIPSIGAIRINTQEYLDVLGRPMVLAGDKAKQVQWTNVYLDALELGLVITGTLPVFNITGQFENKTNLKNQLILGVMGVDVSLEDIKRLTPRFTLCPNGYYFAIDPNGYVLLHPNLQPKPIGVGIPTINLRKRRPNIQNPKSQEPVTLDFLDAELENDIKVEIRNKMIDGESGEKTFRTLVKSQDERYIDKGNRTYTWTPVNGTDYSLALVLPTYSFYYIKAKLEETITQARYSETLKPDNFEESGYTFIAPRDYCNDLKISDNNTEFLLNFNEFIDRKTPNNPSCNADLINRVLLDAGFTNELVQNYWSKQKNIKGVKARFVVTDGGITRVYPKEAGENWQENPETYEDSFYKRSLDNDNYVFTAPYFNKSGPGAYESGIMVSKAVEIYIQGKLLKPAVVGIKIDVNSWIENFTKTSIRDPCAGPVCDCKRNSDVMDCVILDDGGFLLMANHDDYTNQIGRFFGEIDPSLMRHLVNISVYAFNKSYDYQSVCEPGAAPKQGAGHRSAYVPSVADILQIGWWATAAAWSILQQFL
Sequence of human Cav2.2 (P54289 947-1103 partner limits assumed): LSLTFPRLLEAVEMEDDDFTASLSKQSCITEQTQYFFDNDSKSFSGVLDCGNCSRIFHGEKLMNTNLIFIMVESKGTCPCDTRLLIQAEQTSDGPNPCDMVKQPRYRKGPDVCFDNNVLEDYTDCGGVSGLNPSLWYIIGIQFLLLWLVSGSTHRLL
Sequence of human Cav2.2 (P54284 whole entry partner): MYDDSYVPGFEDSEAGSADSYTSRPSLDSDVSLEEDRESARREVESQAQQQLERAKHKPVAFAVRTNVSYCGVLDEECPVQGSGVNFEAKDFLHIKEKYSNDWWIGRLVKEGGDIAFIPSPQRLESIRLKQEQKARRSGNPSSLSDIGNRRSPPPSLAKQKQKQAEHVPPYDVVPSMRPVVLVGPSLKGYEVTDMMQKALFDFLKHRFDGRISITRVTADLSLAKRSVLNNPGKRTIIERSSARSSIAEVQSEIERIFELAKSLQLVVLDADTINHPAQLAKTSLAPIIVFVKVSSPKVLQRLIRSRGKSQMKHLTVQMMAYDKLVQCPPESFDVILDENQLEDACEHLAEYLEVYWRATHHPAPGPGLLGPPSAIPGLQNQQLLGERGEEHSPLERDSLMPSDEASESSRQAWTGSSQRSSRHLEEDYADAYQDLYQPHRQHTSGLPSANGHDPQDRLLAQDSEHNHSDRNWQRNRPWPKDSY

This experiment addresses human Cav2.2 (Homo sapiens, UniProt Q00975). As to the kind of experiment: Assessment of calcium channel activity using FLIPR (Ca2+ influx in IMR32 cells). The experiment is classed as cell-based. The settings on record: 60 minute pre-incubation with compound, 2 μM nifedipine, depolarized with 80 mM KCl. In outline:
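IMR32 neuroblastoma cells seeded at 1-1.2×10^5 cells/well and grown 48 h at 37 °C before FLIPR Ca2+ influx read. Percent inhibition at each concentration vs no-inhibitor activity; IC50 by non-linear sigmoidal dose-response fit.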
Take `CC(C)C[C@@H](C(=O)N[C@H]1CC[C@@H]2CN(Cc3cccc(C(F)(F)F)c3)C[C@@H]21)N(C)C(=O)OC(C)(C)C` [Example 307, tert-butyl methyl((S)-4-methyl-1-oxo-1-((3aR,4S,6aS)-2-(3-(trifluoromethyl)benzyl)octahydrocyclopenta[c]pyrrol-4-ylamino)pentan-2-yl)carbamate]: the IC50 stood at 1540 nM. Regarding `CC(C)C[C@@H](C(=O)N[C@H]1CC[C@@H]2CN(Cc3ccc(F)cc3)C[C@@H]21)N(C)C(=O)OC(C)(C)C` [Example 309, tert-butyl(S)-1-((3aR,4S,6aS)-2-(4-fluorobenzyl)octahydrocyclopenta[c]pyrrol-4-ylamino)-4-methyl-1-oxopentan-2-yl(methyl)carbamate], the IC50 is 1740 nM.

Regarding `CCN(C(=O)OC(C)(C)C)[C@@H](CC(C)C)C(=O)N[C@H]1CC[C@@H]2CN(Cc3cccc(C(F)(F)F)c3)C[C@@H]21` [Example 310, tert-butyl ethyl((S)-4-methyl-1-oxo-1-((3aR,4S,6aS)-2-(3-(trifluoromethyl)benzyl)octahydrocyclopenta[c]pyrrol-4-ylamino)pentan-2-yl)carbamate], the IC50 was determined as 680 nM. For the compound `CCC[C@@H](C(=O)N[C@H]1CC[C@@H]2CN(Cc3cccc(C(F)(F)F)c3)C[C@@H]21)N(C)C(=O)OC(C)(C)C` [Example 313, tert-butyl methyl((S)-1-oxo-1-((3aR,4S,6aS)-2-(3-(trifluoromethyl)benzyl)octahydrocyclopenta[c]pyrrol-4-ylamino)pentan-2-yl)carbamate], the IC50 came to 2100 nM. Under `CCC[C@@H](C(=O)N[C@H]1CC[C@@H]2CN(Cc3ccc(C(F)(F)F)cc3)C[C@@H]21)N(C)C(=O)OC(C)(C)C` [Example 314, tert-butyl methyl((S)-1-oxo-1-((3aR,4S,6aS)-2-(4-(trifluoromethyl)benzyl)octahydrocyclopenta[c]pyrrol-4-ylamino)pentan-2-yl)carbamate] stands 2150 nM. `CCC[C@@H](C(=O)N[C@@H]1CC[C@H]2CN(Cc3ccc(C(F)(F)F)cc3)C[C@H]21)N(C)C(=O)OC(C)(C)C` [Example 317, tert-butyl methyl((S)-1-oxo-1-((3aS,4R,6aR)-2-(4-(trifluoromethyl)benzyl)octahydrocyclopenta[c]pyrrol-4-ylamino)pentan-2-yl)carbamate]: the IC50 is 900 nM. Under `CC(C)C[C@@H](C(=O)N[C@@H]1CC[C@H]2CN(S(=O)(=O)c3cccc(C(F)(F)F)c3)C[C@H]21)N1CCOCC1` [Example 319, (2S)-4-methyl-2-morpholin-4-yl-N-((3aS,4R,6aR)-2-{[3-(trifluoromethyl)phenyl]sulfonyl}octahydrocyclopenta[c]pyrrol-4-yl)pentanamide] stands 1210 nM; under `CC(C)C[C@@H](C(=O)N[C@@H]1CC[C@H]2CN(S(=O)(=O)c3cccc(C(F)(F)F)c3)C[C@H]21)N1CCCC1` [Example 320, (2S)-4-methyl-2-pyrrolidin-1-yl-N-((3aS,4R,6aR)-2-{[3-(trifluoromethyl)phenyl]sulfonyl}octahydrocyclopenta[c]pyrrol-4-yl)pentanamide], 700 nM; under `CC(C)C[C@@H](C(=O)N[C@@H]1CC[C@H]2CN(S(=O)(=O)c3cccc(C(F)(F)F)c3)C[C@H]21)N1CCCCC1` [Example 321, (2S)-4-methyl-2-piperidin-1-yl-N-((3aS,4R,6aR)-2-{[3-(trifluoromethyl)phenyl]sulfonyl}octahydrocyclopenta[c]pyrrol-4-yl)pentanamide], 440 nM. Take `CC(C)C[C@@H](C(=O)N[C@H]1CC[C@@H]2CN(S(=O)(=O)c3cccc(C(F)(F)F)c3)C[C@@H]21)N(C)C(=O)OC(C)(C)C` [Example 322, tert-butyl methyl((S)-4-methyl-1-oxo-1-((3aR,4S,6aS)-2-(3-(trifluoromethyl)phenylsulfonyl)octahydrocyclopenta[c]pyrrol-4-ylamino)pentan-2-yl)carbamate]: the IC50 stood at 700 nM. For the compound `CCN(C(=O)OC(C)(C)C)[C@@H](CC(C)C)C(=O)N[C@H]1CC[C@@H]2CN(S(=O)(=O)c3cccc(C(F)(F)F)c3)C[C@@H]21` [Example 323, tert-butyl ethyl((S)-4-methyl-1-oxo-1-((3aR,4S,6aS)-2-(3-(trifluoromethyl)phenylsulfonyl)octahydrocyclopenta[c]pyrrol-4-ylamino)pentan-2-yl)carbamate], the half-inhibitory concentration (IC50) worked out at 200 nM.

As for `CC(C)C[C@@H](C(=O)N[C@@H]1CC[C@H]2CN(S(=O)(=O)c3ccc(C(F)(F)F)cc3)C[C@H]21)N(C)C(=O)OC(C)(C)C` [Example 324, tert-butyl methyl((S)-4-methyl-1-oxo-1-((3aS,4R,6aR)-2-(4-(trifluoromethyl)phenylsulfonyl)octahydrocyclopenta[c]pyrrol-4-ylamino)pentan-2-yl)carbamate], the IC50 stood at 690 nM. For the compound `CC(C)C[C@@H](C(=O)N[C@@H]1CC[C@H]2CN(S(=O)(=O)c3cccc(C(F)(F)F)c3)C[C@H]21)N(C)C(=O)OC(C)(C)C` [Example 325, tert-butyl methyl((S)-4-methyl-1-oxo-1-((3aS,4R,6aR)-2-(3-(trifluoromethyl)phenylsulfonyl)octahydrocyclopenta[c]pyrrol-4-ylamino)pentan-2-yl)carbamate], the IC50 is 250 nM.

As for `CC(C)C[C@@H](C(=O)N[C@@H]1CC[C@H]2CN(S(=O)(=O)c3ccc(F)cc3)C[C@H]21)N(C)C(=O)OC(C)(C)C` [Example 326, tert-butyl(S)-1-((3aS,4R,6aR)-2-(4-fluorophenylsulfonyl)octahydrocyclopenta[c]pyrrol-4-ylamino)-4-methyl-1-oxopentan-2-yl(methyl)carbamate], the IC50 is 1460 nM. For the compound `CC(C)C[C@@H](C(=O)N[C@@H]1CC[C@H]2CN(S(=O)(=O)c3ccc(F)c(C(F)(F)F)c3)C[C@H]21)N(C)C(=O)OC(C)(C)C` [Example 327, tert-butyl(S)-1-((3aS,4R,6aR)-2-(4-fluoro-3-(trifluoromethyl)phenylsulfonyl)octahydrocyclopenta[c]pyrrol-4-ylamino)-4-methyl-1-oxopentan-2-yl(methyl)carbamate], the IC50 is 1830 nM. Under `CC(C)C[C@@H](C(=O)N[C@@H]1CC[C@@H]2CN(S(=O)(=O)c3ccc(C(F)(F)F)cc3)C[C@@H]21)N(C)C(=O)OC(C)(C)C` [Example 329, tert-butyl methyl((S)-4-methyl-1-oxo-1-((3aR,4R,6aS)-2-(4-(trifluoromethyl)phenylsulfonyl)octahydrocyclopenta[c]pyrrol-4-ylamino)pentan-2-yl)carbamate] stands 2600 nM; under `CCC[C@@H](C(=O)N[C@@H]1CC[C@H]2CN(S(=O)(=O)c3ccc(F)cc3)C[C@H]21)N(C)C(=O)OC(C)(C)C` [Example 330, tert-butyl(S)-1-((3aS,4R,6aR)-2-(4-fluorophenylsulfonyl)octahydrocyclopenta[c]pyrrol-4-ylamino)-1-oxopentan-2-yl(methyl)carbamate], 1110 nM. For the compound `CCC[C@@H](C(=O)N[C@@H]1CC[C@H]2CN(S(=O)(=O)c3ccc(C(F)(F)F)cc3)C[C@H]21)N(C)C(=O)OC(C)(C)C` [Example 331, tert-butyl methyl((S)-1-oxo-1-((3aS,4R,6aR)-2-(4-(trifluoromethyl)phenylsulfonyl)octahydrocyclopenta[c]pyrrol-4-ylamino)pentan-2-yl)carbamate], the IC50 was 750 nM. Take `CC[C@H](C)[C@@H](C(=O)N[C@H]1CC[C@@H]2CN(S(=O)(=O)c3cccc(C(F)(F)F)c3)C[C@@H]21)N(C)C(=O)OC(C)(C)C` [Example 332, tert-butyl methyl((2S,3S)-3-methyl-1-oxo-1-((3aR,4S,6aS)-2-(3-(trifluoromethyl)phenylsulfonyl)octahydrocyclopenta[c]pyrrol-4-ylamino)pentan-2-yl)carbamate]: the IC50 is 480 nM.

Regarding `CC[C@H](C)[C@@H](C(=O)N[C@H]1CC[C@@H]2CN(S(=O)(=O)c3ccc(C(F)(F)F)cc3)C[C@@H]21)N(C)C(=O)OC(C)(C)C` [Example 333, tert-butyl methyl((2S,3S)-3-methyl-1-oxo-1-((3aR,4S,6aS)-2-(4-(trifluoromethyl)phenylsulfonyl)octahydrocyclopenta[c]pyrrol-4-ylamino)pentan-2-yl)carbamate], the IC50 is 570 nM.

In the case of `CC[C@H](C)[C@@H](C(=O)N[C@@H]1CC[C@H]2CN(S(=O)(=O)c3cccc(C(F)(F)F)c3)C[C@H]21)N(C)C(=O)OC(C)(C)C` [Example 334, tert-butyl methyl((2S,3S)-3-methyl-1-oxo-1-((3aS,4R,6aR)-2-(3-(trifluoromethyl)phenylsulfonyl)octahydrocyclopenta[c]pyrrol-4-ylamino)pentan-2-yl)carbamate], the IC50 is 690 nM. Under `CC[C@H](C)[C@@H](C(=O)N[C@@H]1CC[C@H]2CN(S(=O)(=O)c3ccc(C(F)(F)F)cc3)C[C@H]21)N(C)C(=O)OC(C)(C)C` [Example 335, tert-butyl methyl((2S,3S)-3-methyl-1-oxo-1-((3aS,4R,6aR)-2-(4-(trifluoromethyl)phenylsulfonyl)octahydrocyclopenta[c]pyrrol-4-ylamino)pentan-2-yl)carbamate] stands 830 nM. With `CN(C(=O)OC(C)(C)C)[C@@H](CC(C)(C)C)C(=O)N[C@H]1CC[C@@H]2CN(S(=O)(=O)c3cccc(C(F)(F)F)c3)C[C@@H]21` [Example 336, tert-butyl(S)-4,4-dimethyl-1-oxo-1-((3aR,4S,6aS)-2-(3-(trifluoromethyl)phenylsulfonyl)octahydrocyclopenta[c]pyrrol-4-ylamino)pentan-2-yl(methyl)carbamate] the figure was 480 nM; with `CN(C(=O)OC(C)(C)C)[C@@H](CC(C)(C)C)C(=O)N[C@H]1CC[C@@H]2CN(S(=O)(=O)c3ccc(C(F)(F)F)cc3)C[C@@H]21` [Example 337, tert-butyl(S)-4,4-dimethyl-1-oxo-1-((3aR,4S,6aS)-2-(4-(trifluoromethyl)phenylsulfonyl)octahydrocyclopenta[c]pyrrol-4-ylamino)pentan-2-yl(methyl)carbamate], 780 nM.

What is called IC50 is the concentration at which inhibition is half-maximal.
